In patent US11434220B2, “Use of physiological cooling active ingredients, and compositions comprising such active ingredients” (BASF SE, priority 2017, dated 2022):
Each block holds one compound with its values, some of them ahead of it.

Columns and labels:
[1] = test system: trained panelists; assay: Sensory assessment: cooling intensity of inventive amides in 5% sugar solution compared to FEMA 4809; type: in vivo, human; conditions: scale 1 (very weak) to 9 (very strong), n=10 to 11
Experimental: […] What were assessed here were initial cooling intensity, overall cooling intensity and long-lasting action on a scale from 1 (very weak) to 9 (very strong).

[2] = target: T1, human TRPM8 receptor (Homo sapiens, UniProt Q7Z2W7); assay: Assay for TRPM8 modulators: Ca2+ fluorescence (Fluo-4) in HEK293-TRPM8 test cells; type: cell-based; conditions: HEK293 cells stably transfected with human TRPM8, agonism, triplicates, 0.1-200 μM; read-out: Activity In vitro assay (EC50)
T1 construct: expressed in transfected cells
Source text: The test cell system produced, with human TRPM8 DNA, was a stably transfected HEK293 cell line. Preference is given here to HEK293 which, via the plasmid introduced, offers the option of induction of TRPM8 expression by means of tetracycline.
The agonism or antagonism of the receptor can be quantified by means of a Ca^2+-sensitive dye (e.g. FURA, Fluo-4 etc.). Agonists on their own result in an increase in the Ca^2+ signal; antagonists in the presence of menthol, for example, result in a reduction in the Ca^2+ signal (in each case detected by means of the Fluo-4 dye which is caused to have different fluorescence properties by Ca^2+).
First of all, in a manner known per se, a fresh culture of transformed HEK cells is produced in cell culture bottles. The HEK293-TRPM8 test cells are detached from the cell culture bottles by means of trypsin and 40 000 cells/well are sown with 100 μl of medium in 96-hole plates (Greiner #655948 poly-D-lysine-coated). For induction of the TRPM8 receptor, tetracycline is added to the growth medium (DMEM/HG, 10% FCS tetracycline-free, 4 mM L-glutamine, 15 μg/mL blasticidin, 100 μg/mL hygromycin B, 1 μg/mL tetracycline). The next day, the cells are laden with Fluo-4AM dye and the test is conducted.
The test substances are used in the assay in triplicates in concentrations of 0.1-200 μM. Normally, the compounds are kept in DMSO solutions and diluted down for the assay to a maximum DMSO concentration of 2%.

T1 sequence (Q7Z2W7 whole entry): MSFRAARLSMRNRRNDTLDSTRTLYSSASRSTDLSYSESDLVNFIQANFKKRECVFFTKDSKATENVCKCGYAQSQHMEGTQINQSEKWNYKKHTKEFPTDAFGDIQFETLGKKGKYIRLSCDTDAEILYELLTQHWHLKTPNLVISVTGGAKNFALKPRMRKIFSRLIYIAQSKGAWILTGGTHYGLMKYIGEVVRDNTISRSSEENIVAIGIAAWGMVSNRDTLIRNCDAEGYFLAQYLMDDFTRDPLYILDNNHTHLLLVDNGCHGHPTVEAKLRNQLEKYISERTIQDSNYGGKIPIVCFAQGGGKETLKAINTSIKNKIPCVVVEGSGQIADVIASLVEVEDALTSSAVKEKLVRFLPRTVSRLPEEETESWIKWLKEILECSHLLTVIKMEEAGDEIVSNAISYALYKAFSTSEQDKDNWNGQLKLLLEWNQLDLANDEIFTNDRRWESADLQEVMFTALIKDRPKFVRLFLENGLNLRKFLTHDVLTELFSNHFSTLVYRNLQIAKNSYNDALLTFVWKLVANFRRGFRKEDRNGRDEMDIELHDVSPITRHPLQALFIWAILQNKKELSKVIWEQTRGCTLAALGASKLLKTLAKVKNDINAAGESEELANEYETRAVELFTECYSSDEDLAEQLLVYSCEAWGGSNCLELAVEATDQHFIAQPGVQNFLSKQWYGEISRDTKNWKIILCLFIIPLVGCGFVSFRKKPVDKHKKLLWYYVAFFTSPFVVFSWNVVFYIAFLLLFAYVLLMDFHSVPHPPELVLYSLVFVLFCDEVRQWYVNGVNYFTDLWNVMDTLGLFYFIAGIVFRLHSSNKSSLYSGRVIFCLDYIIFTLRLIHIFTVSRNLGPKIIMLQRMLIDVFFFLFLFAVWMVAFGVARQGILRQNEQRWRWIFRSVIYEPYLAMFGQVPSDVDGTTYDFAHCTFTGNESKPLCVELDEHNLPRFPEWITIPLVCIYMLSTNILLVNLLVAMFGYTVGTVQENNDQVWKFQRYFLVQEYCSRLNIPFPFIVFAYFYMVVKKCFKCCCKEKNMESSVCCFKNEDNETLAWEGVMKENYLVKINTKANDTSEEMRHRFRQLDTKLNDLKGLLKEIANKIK

SMILES: CSCCN(C(=O)COc1ccc(C)cc1)c1ccccc1 [2-(4-methylphenoxy)-N-(2-methylsulfanylethyl)-N-phenyl-acetamide]
Initial cooling effect ([1]; 20 ppm in 5% sugar solution): 2.2 | Long-lasting action ([1]; 20 ppm in 5% sugar solution): 2.8 | Overall cooling intensity ([1]; 20 ppm in 5% sugar solution): 2.8 | EC50 [2]: 25 µM

SMILES: CCN(CCSC)C(=O)/C=C/c1ccc2c(c1)OCO2 [(E)-3-(1,3-benzodioxol-5-yl)-N-ethyl-N-(2-methylsulfanylethyl)prop-2-enamide]
Initial cooling effect ([1]; 20 ppm in 5% sugar solution): 3.8 | Long-lasting action ([1]; 20 ppm in 5% sugar solution): 4.7 | Overall cooling intensity ([1]; 20 ppm in 5% sugar solution): 5 | EC50 [2]: 15 µM

SMILES: O=C(/C=C/c1ccc2c(c1)OCO2)N(c1ccccc1)C1CCOC1 (centres unmarked) [(E)-3-(1,3-benzodioxol-5-yl)-N-phenyl-N-tetrahydrofuran-3-yl-prop-2-enamide]
Initial cooling effect ([1]; 2 ppm in 5% sugar solution): 4.1 | Long-lasting action ([1]; 2 ppm in 5% sugar solution): 6.9 | Overall cooling intensity ([1]; 2 ppm in 5% sugar solution): 6.1 | Initial cooling effect ([1]; 20 ppm in 5% sugar solution): 5.8 | Long-lasting action ([1]; 20 ppm in 5% sugar solution): 7.9 | Overall cooling intensity ([1]; 20 ppm in 5% sugar solution): 7.8 | EC50 [2]: 25 µM

SMILES: COc1ccc(/C=C/C(=O)N(c2ccccn2)C2CCSC2)cc1 (centres unmarked) [(E)-3-(4-methoxyphenyl)-N-(2-pyridyl)-N-tetrahydrothiophen-3-yl-prop-2-enamide]
Initial cooling effect ([1]; 20 ppm in 5% sugar solution): 4.1 | Long-lasting action ([1]; 20 ppm in 5% sugar solution): 5.9 | Overall cooling intensity ([1]; 20 ppm in 5% sugar solution): 5.6 | EC50 [2]: 25 µM

SMILES: Cc1ccc(/C=C/C(=O)N(c2ccccn2)C2CCSC2)cc1 (centres unmarked) [(E)-3-(p-tolyl)-N-(2-pyridyl)-N-tetrahydrothiophen-3-yl-prop-2-enamide]
Initial cooling effect ([1]; 20 ppm in 5% sugar solution): 5.3 | Long-lasting action ([1]; 20 ppm in 5% sugar solution): 7.4 | Overall cooling intensity ([1]; 20 ppm in 5% sugar solution): 7.0 | EC50 [2]: 25 µM

SMILES: O=C(/C=C/c1ccccc1)N(c1ccccn1)C1CCSC1 (centres unmarked) [(E)-3-phenyl-N-(2-pyridyl)-N-tetrahydrothiophen-3-yl-prop-2-enamide]
Initial cooling effect ([1]; 20 ppm in 5% sugar solution): 5.3 | Long-lasting action ([1]; 20 ppm in 5% sugar solution): 7.8 | Overall cooling intensity ([1]; 20 ppm in 5% sugar solution): 7.8 | EC50 [2]: 30 µM

SMILES: COc1ccc(/C=C/C(=O)N(c2ccsc2)C2CCCCC2)cc1 [(E)-N-cyclohexyl-3-(4-methoxyphenyl)-N-(3-thienyl)prop-2-enamide]
EC50 [2]: 25 µM

SMILES: Cc1ccc(OCC(=O)N(c2ccsc2)C2CCCCC2)cc1 [N-cyclohexyl-2-(4-methylphenoxy)-N-(3-thienyl)acetamide]
EC50 [2]: 30 µM

These reach a lower EC50 [2]. Values come first.

EC50 [2]: 12.5 µM
SMILES: COc1ccc(/C=C/C(=O)N(c2ccccc2)C2CCOC2)cc1 (centres unmarked) [(E)-3-(4-methoxyphenyl)-N-phenyl-N-tetrahydrofuran-3-yl-prop-2-enamide]

EC50 [2]: 10 µM
SMILES: Cc1ccc(/C=C/C(=O)N(CC2CCCO2)c2cc[nH]n2)cc1 (centres unmarked) [(E)-3-(p-tolyl)-N-(1H-pyrazol-3-yl)-N-(tetrahydrofuran-2-ylmethyl)prop-2-enamide]

EC50 [2]: 10 µM
SMILES: CCN(CCSC)C(=O)/C=C/c1ccc(C)cc1 [(E)-N-ethyl-N-(2-methylsulfanylethyl)-3-(p-tolyl)prop-2-enamide]

EC50 [2]: 6 µM
SMILES: O=C(/C=C/c1ccc2c(c1)OCO2)N(c1ccccn1)C1CCSC1 (centres unmarked) [(E)-3-(1,3-benzodioxol-5-yl)-N-(2-pyridyl)-N-tetrahydrothiophen-3-yl-prop-2-enamide]
Initial cooling effect ([1]; 20 ppm in 5% sugar solution): 6.6 | Long-lasting action ([1]; 20 ppm in 5% sugar solution): 7.9 | Overall cooling intensity ([1]; 20 ppm in 5% sugar solution): 8.3

EC50 [2]: 5 µM
SMILES: O=C(/C=C/c1ccc2c(c1)OCO2)N(CC1CCCO1)c1ccccc1 (centres unmarked) [(E)-3-(1,3-benzodioxol-5-yl)-N-phenyl-N-(tetrahydrofuran-2-ylmethyl)prop-2-enamide]
Initial cooling effect ([1]; 20 ppm in 5% sugar solution): 3.1 | Long-lasting action ([1]; 20 ppm in 5% sugar solution): 5.3 | Overall cooling intensity ([1]; 20 ppm in 5% sugar solution): 5.0

EC50 [2]: 5 µM
SMILES: Cc1ccc(/C=C/C(=O)N(CC2CCCO2)c2ccccc2)cc1 (centres unmarked) [(E)-N-phenyl-3-(p-tolyl)-N-(tetrahydrofuran-2-ylmethyl)prop-2-enamide]
